Data reported in US12441703B2, “Carboxamides as modulators of sodium channels” (VERTEX PHARMACEUTICALS INCORPORATED, priority 2019, dated 2025).
pIC50: −log10 of the molar value. Read-outs that look alike come from different tables or passages of the source.

Molecular target: human NaV 1.8 (Homo sapiens, UniProt Q9Y5Y9)
Assay: E-VIPR assay for detecting and measuring NaV inhibition properties
Assay type: cell-based
Details: HEK cells expressing truncated human NaV 1.8, read-out: IC50
Summary of the method: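 Membrane-potential (coumarin/oxonol) readout after 10 s of 10 Hz biphasic electrical stimulation on E-VIPR. Compounds: 11-point 3-fold dilutions, […], 0.625% DMSO, 30 min at room temperature, human serum optional. Cells: HEK expressing truncated human NaV1.8 co-transduced with KIR2.1.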

[1] = E-VIPR assay conducted in the presence of human serum

Sequence of human NaV 1.8 (Q9Y5Y9 whole entry, looked up): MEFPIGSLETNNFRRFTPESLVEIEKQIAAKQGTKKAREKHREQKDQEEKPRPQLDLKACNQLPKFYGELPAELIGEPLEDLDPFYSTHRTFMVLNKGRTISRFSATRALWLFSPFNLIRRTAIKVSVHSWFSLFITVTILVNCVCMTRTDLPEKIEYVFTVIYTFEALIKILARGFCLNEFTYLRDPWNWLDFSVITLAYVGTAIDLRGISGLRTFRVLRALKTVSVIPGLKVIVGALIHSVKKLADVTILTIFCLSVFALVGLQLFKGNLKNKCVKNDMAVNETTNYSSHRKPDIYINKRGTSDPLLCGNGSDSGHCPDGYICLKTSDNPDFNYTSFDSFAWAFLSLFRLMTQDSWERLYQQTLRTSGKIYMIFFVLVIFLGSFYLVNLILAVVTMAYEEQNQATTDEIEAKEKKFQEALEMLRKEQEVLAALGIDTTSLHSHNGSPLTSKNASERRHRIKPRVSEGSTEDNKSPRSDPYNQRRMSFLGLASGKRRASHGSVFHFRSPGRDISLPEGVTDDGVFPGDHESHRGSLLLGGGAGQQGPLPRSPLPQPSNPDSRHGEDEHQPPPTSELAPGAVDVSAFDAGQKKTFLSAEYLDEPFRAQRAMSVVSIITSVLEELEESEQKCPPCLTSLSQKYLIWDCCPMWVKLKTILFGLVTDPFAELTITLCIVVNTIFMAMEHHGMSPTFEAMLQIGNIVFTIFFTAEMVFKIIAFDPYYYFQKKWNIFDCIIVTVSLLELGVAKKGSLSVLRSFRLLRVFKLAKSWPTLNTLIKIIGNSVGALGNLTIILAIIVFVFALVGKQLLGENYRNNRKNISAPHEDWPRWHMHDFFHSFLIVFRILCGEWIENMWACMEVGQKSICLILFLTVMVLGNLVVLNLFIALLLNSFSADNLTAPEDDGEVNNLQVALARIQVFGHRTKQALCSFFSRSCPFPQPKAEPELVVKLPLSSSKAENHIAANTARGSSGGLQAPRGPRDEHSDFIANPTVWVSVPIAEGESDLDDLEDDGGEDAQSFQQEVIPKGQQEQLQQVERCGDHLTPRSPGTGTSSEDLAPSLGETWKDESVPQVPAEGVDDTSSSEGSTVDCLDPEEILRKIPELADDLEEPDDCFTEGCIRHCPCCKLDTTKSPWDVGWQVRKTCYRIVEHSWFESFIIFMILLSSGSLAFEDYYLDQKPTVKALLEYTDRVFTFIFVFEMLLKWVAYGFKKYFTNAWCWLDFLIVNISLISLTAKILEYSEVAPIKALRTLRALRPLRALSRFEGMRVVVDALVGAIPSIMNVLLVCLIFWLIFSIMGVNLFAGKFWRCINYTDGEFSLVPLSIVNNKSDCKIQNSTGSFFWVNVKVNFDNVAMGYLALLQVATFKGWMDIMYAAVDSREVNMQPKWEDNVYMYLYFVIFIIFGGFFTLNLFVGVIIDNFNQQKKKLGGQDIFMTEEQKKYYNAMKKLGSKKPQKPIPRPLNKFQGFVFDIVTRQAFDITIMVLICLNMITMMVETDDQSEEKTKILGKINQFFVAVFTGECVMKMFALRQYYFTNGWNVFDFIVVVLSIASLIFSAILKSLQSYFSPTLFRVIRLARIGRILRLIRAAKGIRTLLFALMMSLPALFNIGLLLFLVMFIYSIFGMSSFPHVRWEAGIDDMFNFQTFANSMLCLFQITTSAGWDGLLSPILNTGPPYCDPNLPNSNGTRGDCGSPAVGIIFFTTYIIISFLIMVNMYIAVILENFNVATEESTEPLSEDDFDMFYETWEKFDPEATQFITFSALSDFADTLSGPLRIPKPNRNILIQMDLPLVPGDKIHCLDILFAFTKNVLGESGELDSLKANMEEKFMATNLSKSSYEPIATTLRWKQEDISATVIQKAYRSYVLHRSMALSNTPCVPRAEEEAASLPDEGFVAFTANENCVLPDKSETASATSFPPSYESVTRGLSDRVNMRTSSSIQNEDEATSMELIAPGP

| pIC50 [1] | pIC50 (E-VIPR assay conducted in the absence of human serum (compounds marked *)) | SMILES |
| --- | --- | --- |
| 8.10 |  | Cc1c(Oc2ccc(C(F)(F)F)c(F)c2C(=O)Nc2ccnc(C(N)=O)c2)ccc(F)c1F [Compound 42, 4-[[6-(3,4-difluoro-2-methyl-phenoxy)-2-fluoro-3-(trifluoromethyl)benzoyl]amino]pyridine-2-carboxamide] |
| 5.73 |  | Cc1cc(OC(F)(F)F)cc(Oc2ccc(OC(F)(F)F)cc2Cl)c1C(=O)Nc1ccc(C(N)=O)nc1 [Compound 243, 5-[[2-[2-chloro-4-(trifluoromethoxy)phenoxy]-6-methyl-4-(trifluoromethoxy)benzoyl]amino]pyridine-2-carboxamide] |
| 6.48 |  | COc1cc(C(F)F)ccc1Oc1ccc(C(F)(F)F)c(F)c1C(=O)Nc1ccnc(C(N)=O)c1 [Compound 341, 4-[[6-[4-(difluoromethyl)-2-methoxy-phenoxy]-2-fluoro-3-(trifluoromethyl)benzoyl]amino]pyridine-2-carboxamide] |
|  | 8.30 | COc1c(C(F)(F)F)cc(Oc2ccc(F)cc2Cl)c(C(=O)Nc2cc(C(N)=O)ncc2C)c1F [Compound 382, 4-(6-(2-Chloro-4-Fluorophenoxy)-2-Fluoro-3-Methoxy-4-(Trifluoromethyl)Benzamido)-5-Methylpicolinamide] |
